{"source": "patent US12077503B2", "about": "“Substituted cyclic amides and their use as herbicides” (FMC CORPORATION, priority 2015, dated 2024)", "key": {"[1]": {"system": "corn (Zea mays)", "test": "Test C preemergence", "format": "in vivo", "details": "for Plant response rating, Corn: scale 0 to 100, 0 no effect, 100 complete control", "in_short": "(§1)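 Visual 0 (no effect) to 100 (complete control) ratings versus controls, taken 13–15 d after treatment in the greenhouse; dash means no result. Compounds in a surfactant-containing non-phytotoxic solvent blend were applied preemergence to seeds in loam-sand soil or postemergence to 1- to 4-leaf plants (2–18 cm) in peat-based medium.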"}, "[2]": {"system": "johnsongrass (Sorghum halepense)", "test": "Test C preemergence", "format": "in vivo", "details": "for Plant response rating, Johnsongrass: scale 0 to 100, 0 no effect, 100 complete control", "in_short": "as §1"}, "[3]": {"system": "wheat (winter wheat, Triticum aestivum)", "test": "Test C preemergence", "format": "in vivo", "details": "for Plant response rating, Wheat: scale 0 to 100, 0 no effect, 100 complete control", "in_short": "as §1"}, "[4]": {"system": "foxtail, giant (giant foxtail, Setaria faberii)", "test": "Test C preemergence", "format": "in vivo", "details": "for Plant response rating, Foxtail, Giant: scale 0 to 100, 0 no effect, 100 complete control", "in_short": "as §1"}, "[5]": {"system": "blackgrass (Alopecurus myosuroides)", "test": "Test C preemergence", "format": "in vivo", "details": "for Plant response rating, Blackgrass: scale 0 to 100, 0 no effect, 100 complete control", "in_short": "as §1"}, "[6]": {"system": "soybean (Glycine max)", "test": "Test C preemergence", "format": "in vivo", "details": "for Plant response rating, Soybean: scale 0 to 100, 0 no effect, 100 complete control", "in_short": "as §1"}, "[7]": {"system": "barnyardgrass (Echinochloa crus-galli)", "test": "Test C preemergence", "format": "in vivo", "details": "for Plant response rating, Barnyardgrass: scale 0 to 100, 0 no effect, 100 complete control", "in_short": "as §1"}, "[8]": {"system": "lambsquarters (Chenopodium album)", "test": "Test C preemergence", "format": "in vivo", "details": "for Plant response rating, Lambsquarters: scale 0 to 100, 0 no effect, 100 complete control", "in_short": "as §1"}, "[9]": {"system": "nutsedge, yellow (yellow nutsedge, Cyperus esculentus)", "test": "Test C preemergence", "format": "in vivo", "details": "for Plant response rating, Nutsedge, Yellow: scale 0 to 100, 0 no effect, 100 complete control", "in_short": "as §1"}, "[10]": {"system": "morningglory (Ipomoea coccinea)", "test": "Test C preemergence", "format": "in vivo", "details": "for Plant response rating, Morningglory: scale 0 to 100, 0 no effect, 100 complete control", "in_short": "as §1"}, "[11]": {"system": "velvetleaf (Abutilon theophrasti)", "test": "Test C preemergence", "format": "in vivo", "details": "for Plant response rating, Velvetleaf: scale 0 to 100, 0 no effect, 100 complete control", "in_short": "as §1"}, "[12]": {"system": "waterhemp (common waterhemp, Amaranthus rudis)", "test": "Test C preemergence", "format": "in vivo", "details": "for Plant response rating, Waterhemp: scale 0 to 100, 0 no effect, 100 complete control", "in_short": "as §1"}, "[13]": {"system": "pigweed (Amaranthus retroflexus)", "test": "Test C preemergence", "format": "in vivo", "details": "for Plant response rating, Pigweed: scale 0 to 100, 0 no effect, 100 complete control", "in_short": "as §1"}, "[14]": {"system": "crabgrass, large (large crabgrass, Digitaria sanguinalis)", "test": "Test C preemergence", "format": "in vivo", "details": "for Plant response rating, Crabgrass, Large: scale 0 to 100, 0 no effect, 100 complete control", "in_short": "as §1"}, "[15]": {"system": "Galium (catchweed bedstraw, Galium aparine)", "test": "Test C preemergence", "format": "in vivo", "details": "for Plant response rating, Galium: scale 0 to 100, 0 no effect, 100 complete control", "in_short": "as §1"}, "[16]": {"system": "oilseed rape (Brassica napus)", "test": "Test C preemergence", "format": "in vivo", "details": "for Plant response rating, Oilseed Rape: scale 0 to 100, 0 no effect, 100 complete control", "in_short": "as §1"}, "[17]": {"system": "ryegrass, Italian (Italian ryegrass, Lolium multiflorum)", "test": "Test C preemergence", "format": "in vivo", "details": "for Plant response rating, Ryegrass, Italian: scale 0 to 100, 0 no effect, 100 complete control", "in_short": "as §1"}, "[18]": {"details": "31 g ai/ha, 0 is no effect, 100 is complete control"}}}
{"smiles": "O=C1NC[C@H](c2ccc(C(F)(F)F)cn2)[C@H]1C(=O)Nc1cccc(F)c1F", "note": "[Compound 1104]", "values": [{"measurement": "melting point", "value": "192 to 196", "unit": "°C"}]}
{"smiles": "C=C(C)c1ccc([C@H]2CN(C)C(=O)[C@@H]2C(=O)Nc2ccc(F)c(F)c2F)cc1", "note": "[Compound 1148]", "values": [{"measurement": "melting point", "value": "132 to 136", "unit": "°C"}]}
{"smiles": "CC(O)c1ccccc1NC(=O)C1C(=O)N(C)CC1c1cccc(C(F)(F)F)c1", "note": "(centres unmarked) [Compound 1147]", "values": [{"measurement": "melting point", "value": "107.5 to 115.4", "unit": "°C"}]}
{"smiles": "C=C(C)c1cccc([C@H]2CN(C)C(=O)[C@@H]2C(=O)Nc2ccc(F)c(F)c2F)c1", "note": "[Compound 1087]", "values": [{"measurement": "melting point", "value": "98 to 102", "unit": "°C"}]}
{"smiles": "Cc1cc([C@H]2CN(C)C(=O)[C@@H]2C(=O)Nc2cccc(F)c2F)no1", "note": "[Compound 1237]", "values": [{"measurement": "melting point", "value": "97 to 101", "unit": "°C"}]}
{"smiles": "CC(C)=CC1CNC(=O)C1C(=O)Nc1ccccc1F", "note": "(centres unmarked) [Compound 1011]", "values": [{"measurement": "melting point", "value": "136 to 140", "unit": "°C"}]}
{"smiles": "O=C1NCC(c2cc(F)cc(C(F)(F)F)c2)C1C(=O)Nc1cccc(F)c1F", "note": "(centres unmarked) [Compound 488]", "values": [{"measurement": "Plant response rating (scale of 0 to 100), Corn", "setting": "[1]; [18]", "value": 25}, {"measurement": "Plant response rating, Corn", "setting": "[1]; 62 g ai/ha", "value": 60}, {"measurement": "Plant response rating, Corn", "setting": "[1]; 125 g ai/ha", "value": 70}, {"measurement": "Plant response rating, Corn", "setting": "[1]; 250 g ai/ha", "value": 85}, {"measurement": "Plant response rating (scale of 0 to 100), Johnsongrass", "setting": "[2]; [18]", "value": 70}, {"measurement": "Plant response rating, Johnsongrass", "setting": "[2]; 62 g ai/ha", "value": 80}, {"measurement": "Plant response rating, Johnsongrass", "setting": "[2]; 125 g ai/ha", "value": 85}, {"measurement": "Plant response rating, Johnsongrass", "setting": "[2]; 250 g ai/ha", "value": 90}, {"measurement": "Plant response rating (scale of 0 to 100), Wheat", "setting": "[3]; [18]", "value": 35}, {"measurement": "Plant response rating, Wheat", "setting": "[3]; 62 g ai/ha", "value": 35}, {"measurement": "Plant response rating, Wheat", "setting": "[3]; 125 g ai/ha", "value": 85}, {"measurement": "Plant response rating, Wheat", "setting": "[3]; 250 g ai/ha", "value": 90}, {"measurement": "Plant response rating (scale of 0 to 100), Foxtail, Giant", "setting": "[4]; [18]", "value": 85}, {"measurement": "Plant response rating, Foxtail, Giant", "setting": "[4]; 62 g ai/ha", "value": 90}, {"measurement": "Plant response rating, Foxtail, Giant", "setting": "[4]; 125 g ai/ha", "value": 90}, {"measurement": "Plant response rating, Foxtail, Giant", "setting": "[4]; 250 g ai/ha", "value": 95}, {"measurement": "Plant response rating (scale of 0 to 100), Blackgrass", "setting": "[5]; [18]", "value": 0}, {"measurement": "Plant response rating, Blackgrass", "setting": "[5]; 62 g ai/ha", "value": 50}, {"measurement": "Plant response rating, Blackgrass", "setting": "[5]; 125 g ai/ha", "value": 90}, {"measurement": "Plant response rating, Blackgrass", "setting": "[5]; 250 g ai/ha", "value": 85}, {"measurement": "Plant response rating (scale of 0 to 100), Soybean", "setting": "[6]; [18]", "value": 0}, {"measurement": "Plant response rating, Soybean", "setting": "[6]; 62 g ai/ha", "value": 0}, {"measurement": "Plant response rating, Soybean", "setting": "[6]; 125 g ai/ha", "value": 0}, {"measurement": "Plant response rating, Soybean", "setting": "[6]; 250 g ai/ha", "value": 10}, {"measurement": "Plant response rating (scale of 0 to 100), Barnyardgrass", "setting": "[7]; [18]", "value": 95}, {"measurement": "Plant response rating, Barnyardgrass", "setting": "[7]; 62 g ai/ha", "value": 90}, {"measurement": "Plant response rating, Barnyardgrass", "setting": "[7]; 125 g ai/ha", "value": 95}, {"measurement": "Plant response rating, Barnyardgrass", "setting": "[7]; 250 g ai/ha", "value": 95}, {"measurement": "Plant response rating (scale of 0 to 100), Lambsquarters", "setting": "[8]; [18]", "value": 20}, {"measurement": "Plant response rating, Lambsquarters", "setting": "[8]; 62 g ai/ha", "value": 50}, {"measurement": "Plant response rating, Lambsquarters", "setting": "[8]; 125 g ai/ha", "value": 60}, {"measurement": "Plant response rating, Lambsquarters", "setting": "[8]; 250 g ai/ha", "value": 60}, {"measurement": "Plant response rating (scale of 0 to 100), Nutsedge, Yellow", "setting": "[9]; [18]", "value": 0}, {"measurement": "Plant response rating, Nutsedge, Yellow", "setting": "[9]; 62 g ai/ha", "value": 0}, {"measurement": "Plant response rating, Nutsedge, Yellow", "setting": "[9]; 125 g ai/ha", "value": 0}, {"measurement": "Plant response rating, Nutsedge, Yellow", "setting": "[9]; 250 g ai/ha", "value": 0}, {"measurement": "Plant response rating (scale of 0 to 100), Morningglory", "setting": "[10]; [18]", "value": 0}, {"measurement": "Plant response rating, Morningglory", "setting": "[10]; 62 g ai/ha", "value": 25}, {"measurement": "Plant response rating, Morningglory", "setting": "[10]; 125 g ai/ha", "value": 55}, {"measurement": "Plant response rating, Morningglory", "setting": "[10]; 250 g ai/ha", "value": 60}, {"measurement": "Plant response rating (scale of 0 to 100), Velvetleaf", "setting": "[11]; [18]", "value": 0}, {"measurement": "Plant response rating, Velvetleaf", "setting": "[11]; 62 g ai/ha", "value": 0}, {"measurement": "Plant response rating, Velvetleaf", "setting": "[11]; 125 g ai/ha", "value": 10}, {"measurement": "Plant response rating, Velvetleaf", "setting": "[11]; 250 g ai/ha", "value": 20}, {"measurement": "Plant response rating (scale of 0 to 100), Waterhemp", "setting": "[12]; [18]", "value": 25}, {"measurement": "Plant response rating, Waterhemp", "setting": "[12]; 62 g ai/ha", "value": 40}, {"measurement": "Plant response rating, Waterhemp", "setting": "[12]; 125 g ai/ha", "value": 75}, {"measurement": "Plant response rating, Waterhemp", "setting": "[12]; 250 g ai/ha", "value": 80}, {"measurement": "Plant response rating (scale of 0 to 100), Pigweed", "setting": "[13]; [18]", "value": 20}, {"measurement": "Plant response rating, Pigweed", "setting": "[13]; 62 g ai/ha", "value": 75}, {"measurement": "Plant response rating, Pigweed", "setting": "[13]; 125 g ai/ha", "value": 70}, {"measurement": "Plant response rating, Pigweed", "setting": "[13]; 250 g ai/ha", "value": 85}, {"measurement": "Plant response rating (scale of 0 to 100), Crabgrass, Large", "setting": "[14]; [18]", "value": 90}, {"measurement": "Plant response rating, Crabgrass, Large", "setting": "[14]; 62 g ai/ha", "value": 95}, {"measurement": "Plant response rating, Crabgrass, Large", "setting": "[14]; 125 g ai/ha", "value": 95}, {"measurement": "Plant response rating, Crabgrass, Large", "setting": "[14]; 250 g ai/ha", "value": 100}, {"measurement": "Plant response rating (scale of 0 to 100), Galium", "setting": "[15]; [18]", "value": 80}, {"measurement": "Plant response rating, Galium", "setting": "[15]; 62 g ai/ha", "value": 85}, {"measurement": "Plant response rating, Galium", "setting": "[15]; 125 g ai/ha", "value": 85}, {"measurement": "Plant response rating, Galium", "setting": "[15]; 250 g ai/ha", "value": 85}, {"measurement": "Plant response rating (scale of 0 to 100), Oilseed Rape", "setting": "[16]; [18]", "value": 40}, {"measurement": "Plant response rating, Oilseed Rape", "setting": "[16]; 62 g ai/ha", "value": 45}, {"measurement": "Plant response rating, Oilseed Rape", "setting": "[16]; 125 g ai/ha", "value": 85}, {"measurement": "Plant response rating, Oilseed Rape", "setting": "[16]; 250 g ai/ha", "value": 90}, {"measurement": "Plant response rating (scale of 0 to 100), Ryegrass, Italian", "setting": "[17]; [18]", "value": 5}, {"measurement": "Plant response rating, Ryegrass, Italian", "setting": "[17]; 62 g ai/ha", "value": 35}, {"measurement": "Plant response rating, Ryegrass, Italian", "setting": "[17]; 125 g ai/ha", "value": 70}, {"measurement": "Plant response rating, Ryegrass, Italian", "setting": "[17]; 250 g ai/ha", "value": 65}]}
